Read-outs that look alike come from different tables or passages of the source.
How the values were obtained:
Microsome stability, rat = type: in vitro ADME; conditions: parent (as sodium salt) remaining after 30 min, rat microsomes
Description: (§1) Microsome stability was carried out at Cyprotex using pooled human liver microsomes (male and female), pooled rat liver microsomes (male, Sprague Dawley rats), pooled mouse liver microsomes (male CD-1 mice) which were either prepared or purchased from a reputable commercial supplier. […] The final incubation volume was 25 μL. A control incubation was included for each compound tested where 0.1 M phosphate buffer pH 7.4 was added instead of NADPH (minus NADPH). Two control compounds were included with each species. All incubations were performed singularly for each test compound. Each compound was incubated for 0, 5, 15, 30 and 45 min. The control (minus NADPH) was incubated for 45 min only. The reactions were stopped by the addition of 50 μL methanol containing internal standard at the appropriate time points. The incubation plates were centrifuged at 2,500 rpm for 20 min at 4 °C to precipitate the protein. Following precipitation, the sample supernatants were combined in cassettes of up to 4 compounds and analysed using Cyprotex generic LC-MS/MS conditions. From a plot of ln peak area ratio (compound peak area/internal standard peak area) against time, the percentage compound remaining at 30 min was calculated. Results that were > 100% of matched control were defined as 100%.

[1] = Microsome stability, mouse; type: in vitro ADME; conditions: parent (as sodium salt) remaining after 30 min, mouse microsomes
Description: as §1

[2] = Stability in solution (water, 20 °C, 24 h); type: physicochemical; conditions: sodium salt, 24 h at 20 °C in water
Description: Test compounds were incubated (10 μM; < 2.5% DMSO in final concentration) in Milli Q water (n=3 tubes) at 20 °C for 24 h. (Eppendorf Thermomixer Comfort). Aliquots were collected (25 μL) just before the incubation (time “0 min”) and at 24 h. These samples were stored in a -80 °C freezer until the analysis by liquid chromatography with tandem mass spectrometry spectrometry (LC-MS/MS) – see next section for method development. Samples were thawed on wet ice on the day of assay. Thawed aliquots were mixed by vortex mixer, 10 μL of the sample transferred to a clean tube, 40 μL of ice cold acetonitrile added (containing internal standard compound), then centrifuged at 13,000 rpm for 5 min, 40 μL of clear supernatant transferred to an HPLC insert and mixed with 80 μL of 0.01% formic acid in water. Ten to 20 μL was injected onto the LC-MS/MS system. Results are based on the peak area ratio of drug to internal standard at time “0 h” (i.e. before the incubation and at the end i.e. “24 h”).

[3] = molecular target: T1, perforin delivered by KHYG1 NK cells (Homo sapiens, UniProt P14222); test: KHYG1 inhibitory assay: lysis of 51Cr-labelled K562 target cells by KHYG1 NK cells; type: cell-based; conditions: 51Cr-labelled K562 target cells co-incubated with KHYG1 human NK cells, vs untreated control; for inhibition at 10 µM: n = 4; for KHYG1 Inhibition (% at 10 μM): n = 4, 10 µM
T1 construct: The use of whole NK cells to deliver perforin provides a more realistic model of conditions in vivo; endogenous in cells; host or cells: KHYG1 human NK cells (effector); K562 leukemia target cells
T1 sequence (P14222 22-555): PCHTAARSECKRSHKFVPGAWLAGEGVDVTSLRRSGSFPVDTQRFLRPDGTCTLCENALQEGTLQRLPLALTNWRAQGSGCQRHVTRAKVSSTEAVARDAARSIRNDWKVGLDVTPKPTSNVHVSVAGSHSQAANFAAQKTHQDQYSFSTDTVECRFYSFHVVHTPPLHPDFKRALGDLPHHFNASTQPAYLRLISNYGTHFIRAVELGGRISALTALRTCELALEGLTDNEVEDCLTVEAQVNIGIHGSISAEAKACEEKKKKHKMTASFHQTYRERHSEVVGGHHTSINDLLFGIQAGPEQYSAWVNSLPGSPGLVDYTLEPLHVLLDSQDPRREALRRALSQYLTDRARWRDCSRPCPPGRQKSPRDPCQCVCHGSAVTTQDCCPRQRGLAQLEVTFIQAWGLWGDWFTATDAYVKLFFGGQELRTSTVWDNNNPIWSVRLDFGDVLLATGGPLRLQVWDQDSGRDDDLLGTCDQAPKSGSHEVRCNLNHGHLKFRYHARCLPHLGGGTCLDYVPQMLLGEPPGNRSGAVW
Description: The inhibitory function is then determined by identifying the number of untreated or inhibitor treated effector cells required to kill the same number of targets.

[4] = Solubility of the sodium salt in water; type: physicochemical; conditions: sodium salt in water at room temperature
Description: The compound was dissolved in water until it was no longer soluble in order to achieve a supersaturated concentration. The suspensions were sonicated for 15 min. prior to centrifugation at 13,000 revolutions per minute (rpm) for 6 minutes. Supernatants were removed and then recentrifuged prior to dilution of at least two fold in water to avoid precipitation during HPLC analysis.

[5] = Microsome stability, human; type: in vitro ADME; conditions: parent (as sodium salt) remaining after 30 min, human microsomes
Description: as §1

[6] = In vivo plasma pharmacokinetics in mice; conditions: mouse plasma, 10 mg/kg i.p. in 20% hydroxypropyl-β-cyclodextrin
Description: The in vivo PK parameters were measured for seven compounds selected on the basis of the in vitro assessment described above. Plasma pharmacokinetics were determined in male CD-1 mice for compounds 3, 10, 11, 26, 50, 58 and 59 (Table 6). Blood samples were collected at 5–8 time-points after dosing the compounds at 10 mg/kg in a solution of 20% hydroxypropyl-β-cyclodextrin by intraperitoneal (IP) injection. For analysis of the samples, chromatographic conditions were optimised by HPLC for each compound of interest and an internal standard. A liquid chromatography with tandem mass spectrometry (LC-MS/MS) method was then developed and validated for quantitation of each analyte.
PK studies were carried out in female C57BL/6J (female) mice using IP administration of test compound, dosing at 10 mg/kg in a solution of 20% hydroxypropyl-β-cyclodextrin. Mice (n=3 at each time point) were culled with excess inhalation of CO2 and blood collected by cardiac puncture at 5-8 time points after dosing in ice cold EDTA tubes. Plasma was separated by centrifuging at 6000 rpm for 5 min and stored at -80°C until analysis by LC-MS/MS. Frozen plasma was thawed on wet ice on the day of analysis. Ten μL of sample was transferred to a clean microcentrifuge tube and mixed with ice cold acetonitrile (40 μL containing internal standard) to precipitate the plasma proteins. The tubes were centrifuged at 13000 rpm for 5 min to obtain a clear supernatant which was mixed with 0.01% formic acid-water (1:2). Ten to twenty µL was injected into the LC-MS/MS to measure the analyte concentration in the sample. The samples were quantitated against a calibration curve of known analyte concentrations run in test species blank plasma (sourced from Innovative Research, USA). The concentration vs time data was then fitted into a pharmacokinetic software program (Phoenix WinNonlin v6.2) to calculate the PK parameters including T½, Cmax and AUC0-∞.

[7] = Toxicity to KHYG1 NK cells (Trypan blue exclusion); type: cell-based, human; conditions: human, viability of KHYG1 NK cells after 24 h, n = 3
Description: (§2) The toxicity assay was carried out in exactly the same manner as the killing assay above, but instead of adding the labelled K562 target cells, 100 μL of RPMI 0.1% BSA was added. Cells were incubated for 4 h at 37 °C and then washed ×3 in RPMI + 0.1% BSA. […] Trypan blue was added to each well. Viable (clear) cells and total (clear + blue) cells were counted, and the percentage of viable cells was calculated compared to DMSO treated cell control (% viability).

KHYG1 NK cells = test: Toxicity to KHYG1 NK cells (Trypan blue exclusion); type: cell-based, human; conditions: viability of KHYG1 NK cells after 24 h, n = 3
Description: as §2

[8] = parameters: method as in PMID 28110869; conditions: sodium salt in water at room temperature; cited from earlier work
[9] = parameters: method as in PMID 28110869; conditions: parent remaining after 30 min, rat microsomes; cited from earlier work
[10] = parameters: method as in PMID 28110869; conditions: sodium salt, 24 h at 20 °C in water; cited from earlier work

| SMILES | Microsome Stability (%) Rat (Microsome stability, rat) [%] | Microsome Stability (%) Mouse [1] [%] | Stability in Solution (% parent remaining) [2] [%] | inhibition at 10 µM [3] [%] | KHYG1 Inhibition (% at 10 μM) [3] [%] | Solubility [4] | solubility at 15 min [4] [µg/mL] | Microsome Stability (%) Human [5] [%] | AUC0-∞ [6] [µM·h] | Cmax [6] [µM] | T1/2 [6] [h] | viability at 24 h, 10 µM [7] [%] | melting point [°C] | KHYG1 Viability (% at 10 μM) (KHYG1 NK cells) | Solubility [8] [µg/mL] | Microsome Stability (%) Rat [9] [%] | Stability in Solution (% parent remaining) [10] [%] |
| --- | --- | --- | --- | --- | --- | --- | --- | --- | --- | --- | --- | --- | --- | --- | --- | --- | --- |
| CN1Cc2cc(-c3ccc(-c4cnc(F)c(NS(=O)(=O)c5ccc(F)cc5F)c4)s3)ccc2C1=O [Compound 10, 2,4-Difluoro-N-(2-fluoro-5-(5-(2-methyl-1-oxoisoindolin-5-yl)thiophen-2-yl)pyridin-3-yl)benzenesulphonamide] | 100 | 96 | 100 | 93 | 92.5 ± 1.8 | negative impact on solubility | 428 | 94 | 2885 | 236 | 6.6 | 92 ± 3 | – | – | – | – | – |
| CN1Cc2cc(-c3ccc(-c4cnc(Cl)c(NS(=O)(=O)c5ccc(F)cc5F)c4)s3)ccc2C1=O [Compound 11, 2,4-Difluoro-N-(2-chloro-5-(5-(2-methyl-1-oxoisoindolin-5-yl)thiophen-2-yl)pyridin-3-yl)benzenesulphonamide] | 99 | 97 | 100 | 95 ± 2.5 | – | – | 4030 | 95 | 2364 | 149 | 9.5 | 94 ± 5.3 | – | – | – | – | – |
| CN1Cc2cc(-c3ccc(-c4cncc(NS(=O)(=O)c5ccc(C(=O)O)cc5)c4)s3)ccc2C1=O [Compound 55, 4-(N-(5-(5-(2-Methyl-1-oxoisoindolin-5-yl)thiophen-2-yl)pyridin-3-yl)sulfamoyl)benzoic acid] | – | – | – | – | – | – | – | – | – | – | – | – | > 310 | toxic to the NK cells | – | – | – |
| CN1Cc2cc(-c3ccc(-c4cncc(NS(=O)(=O)c5ccc(F)cc5F)c4)s3)ccc2C1=O [Compound 3] | – | – | – | 67.5 ± 17.5 | – | – | – | – | 220 | 10 | 12.0 | 100 | – | – | 1080 | 99 | 82 |
| CN1Cc2cc(-c3ccc(-c4cncc(NS(=O)(=O)c5ccccc5[N+](=O)[O-])c4)s3)ccc2C1=O [Compound 58, N-(5-(5-(2-Methyl-1-oxoisoindolin-5-yl)thiophen-2-yl)pyridin-3-yl)-2-nitrobenzenesulfonamide] | 89 | 100 | 100 | 96 | 95.6 ± 1.9 | – | 671 | 73 | 415 | 105 | 2.5 | 98.7 ± 1.5 | – | – | – | – | – |
